Columns and labels:
[1] = system: Monochoria vaginalis, Presl.; assay: Preemergence weed control under flooded paddy conditions, MOOVA (Monochoria); type: in vivo; settings: flooded paddy; for MOOVA herbicidal rating / herbicidal effect rating, MOOVA: preemergence, rated three to four weeks after treatment; for MOOVA: preemergence weeds, herbicidal effect rating 0-9, three to four weeks after treatment
Sagittaria pygmaea, L. = assay: Preemergence weed control under flooded paddy conditions, SAGPY (Arrowhead (Pygmaea)); type: in vivo; settings: flooded paddy; for SAGPY herbicidal rating / herbicidal effect rating, SAGPY: preemergence, rated three to four weeks after treatment; for SAGPY: preemergence weeds, herbicidal effect rating 0-9, three to four weeks after treatment
Cyperus iria = assay: Preemergence weed control under flooded paddy conditions, CYPIR (Rice Flatsedge); type: in vivo; settings: flooded paddy; for CYPIR herbicidal rating / herbicidal effect rating, CYPIR: preemergence, rated three to four weeks after treatment; for CYPIR: preemergence weeds, herbicidal effect rating 0-9, three to four weeks after treatment
[2] = system: Cyperus serotinus, Rottb.; assay: Preemergence weed control under flooded paddy conditions, CYPSE (Flatsedge); type: in vivo; settings: for CYPSE: preemergence weeds, herbicidal effect rating 0-9, three to four weeks after treatment
[3] = system: Oryza sativa, (L.) Tebonnet; assay: Rice tolerance to post-transplant applications under flooded paddy conditions (Example 187), ORYSAT (Rice, Tebonnet); settings: for ORYSAT herbicidal rating (rice tolerance) / herbicidal effect rating ORYSAT: rated three to four weeks after treatment; for ORYSAT: herbicidal effect rating 0-9, three to four weeks after treatment; for herbicidal effect rating ORYSAT: meaning of each grade not given here
[4] = system: Echinochloa oryzoides (Ard.) Fritsch.; assay: Preemergence weed control under flooded paddy conditions, ECHORC (Watergrass (Calif.)); type: in vivo; settings: flooded paddy; for ECHORC herbicidal rating / herbicidal effect rating, ECHORC: preemergence, rated three to four weeks after treatment; for ECHORC: preemergence weeds, herbicidal effect rating 0-9, three to four weeks after treatment

Compound: COC(=O)C(C)Oc1cc(Cl)c(C)cc1-c1nsc2ccc(-n3c(=O)cc(C(F)(F)F)n(C)c3=O)cc12 (stereo not shown) [Example 492, Propionic acid, 2-{{5-chloro-2-{5-[3,6-dihydro-3-methyl-2,6-dioxo-4-(trifluoromethyl)-1(2H)-pyrimidinyl]-1,2-benzisothiazol-3-yl}-p-tolyl}oxy}-, methyl ester]
- MOOVA herbicidal rating ([1]; 0.0320 kg/ha): 6.0
- MOOVA herbicidal rating ([1]; 0.0620 kg/ha): 6.0
- MOOVA herbicidal rating ([1]; 0.1250 kg/ha): 7.0
- MOOVA herbicidal rating ([1]; 0.2500 kg/ha): 7.0
- SAGPY herbicidal rating (Sagittaria pygmaea, L.; 0.0320 kg/ha): 0.0
- SAGPY herbicidal rating (Sagittaria pygmaea, L.; 0.0620 kg/ha): 0.0
- SAGPY herbicidal rating (Sagittaria pygmaea, L.; 0.1250 kg/ha): 0.0
- SAGPY herbicidal rating (Sagittaria pygmaea, L.; 0.2500 kg/ha): 2.0
- CYPIR herbicidal rating (Cyperus iria; 0.0320 kg/ha): 4.0
- CYPIR herbicidal rating (Cyperus iria; 0.0620 kg/ha): 4.0
- CYPIR herbicidal rating (Cyperus iria; 0.1250 kg/ha): 4.0
- CYPIR herbicidal rating (Cyperus iria; 0.2500 kg/ha): 5.0
- CYPSE herbicidal rating ([2]; 0.2500 kg/ha, preemergence, rated three to four weeks after treatment): 0.0
- ORYSAT herbicidal rating (rice tolerance) ([3]; 0.0320 kg/ha): 2.0
- ORYSAT herbicidal rating (rice tolerance) ([3]; 0.0620 kg/ha): 2.0
- ORYSAT herbicidal rating (rice tolerance) ([3]; 0.1250 kg/ha): 2.0
- ORYSAT herbicidal rating (rice tolerance) ([3]; 0.2500 kg/ha): 3.0
- ECHORC herbicidal rating ([4]; 0.0320 kg/ha): 4.0
- ECHORC herbicidal rating ([4]; 0.0620 kg/ha): 6.0
- ECHORC herbicidal rating ([4]; 0.1250 kg/ha): 6.0
- ECHORC herbicidal rating ([4]; 0.2500 kg/ha): 9.0

Compound: Cc1ccc(OCC(=O)NS(C)(=O)=O)c(-c2noc3cc(F)c(-n4c(=O)cc(C(F)(F)F)n(C)c4=O)cc23)c1 [Example 428, Acetamide, 2-{{2-{5-[3,6-dihydro-3-methyl-2,6-dioxo-4-(trifluoromethyl)-1(2H)-pyrimidinyl]-6-fluoro-1,2-benzisoxazol-3-yl}-p-tolyl}oxy}-N-(methylsulfonyl)-]
- MOOVA ([1]; 0.0320 kg/ha): 9.0
- MOOVA ([1]; 0.0620 kg/ha): 9.0
- MOOVA ([1]; 0.1250 kg/ha): 9.0
- MOOVA ([1]; 0.2500 kg/ha): 9.0
- SAGPY (Sagittaria pygmaea, L.; 0.0320 kg/ha): 0.0
- SAGPY (Sagittaria pygmaea, L.; 0.0620 kg/ha): 0.0
- SAGPY (Sagittaria pygmaea, L.; 0.1250 kg/ha): 2.0
- SAGPY (Sagittaria pygmaea, L.; 0.2500 kg/ha): 6.0
- CYPIR (Cyperus iria; 0.0320 kg/ha): 0.0
- CYPIR (Cyperus iria; 0.0620 kg/ha): 2.0
- CYPIR (Cyperus iria; 0.1250 kg/ha): 4.0
- CYPIR (Cyperus iria; 0.2500 kg/ha): 7.0
- CYPSE ([2]; 0.0320 kg/ha): 0.0
- CYPSE ([2]; 0.0620 kg/ha): 0.0
- ORYSAT ([3]; 0.0320 kg/ha): 0.0
- ORYSAT ([3]; 0.0620 kg/ha): 2.0
- ORYSAT ([3]; 0.1250 kg/ha): 6.0
- ORYSAT ([3]; 0.2500 kg/ha): 6.0
- ECHORC ([4]; 0.0320 kg/ha): 2.0
- ECHORC ([4]; 0.0620 kg/ha): 3.0
- ECHORC ([4]; 0.1250 kg/ha): 6.0
- ECHORC ([4]; 0.2500 kg/ha): 9.0

Compound: CCS(=O)(=O)NC(=O)c1nsc2ccc(-n3c(=O)cc(C(F)(F)F)n(C)c3=O)cc12 [Example 383, 1,2-Benzisothiazole-3-carboxamide, 5-[3,6-dihydro-3-methyl-2,6-dioxo-4-(trifluoromethyl)-1(2H)-pyrimidinyl]-N-(ethylsulfonyl)-]
- herbicidal effect rating, MOOVA ([1]; Rate 0.0320 kg/ha): 9.0
- herbicidal effect rating, MOOVA ([1]; Rate 0.0620 kg/ha): 9.0
- herbicidal effect rating, MOOVA ([1]; Rate 0.1250 kg/ha): 9.0
- herbicidal effect rating, MOOVA ([1]; Rate 0.2500 kg/ha): 9.0
- herbicidal effect rating, SAGPY (Sagittaria pygmaea, L.; Rate 0.0320 kg/ha): 3.0
- herbicidal effect rating, SAGPY (Sagittaria pygmaea, L.; Rate 0.0620 kg/ha): 7.5
- herbicidal effect rating, SAGPY (Sagittaria pygmaea, L.; Rate 0.1250 kg/ha): 9.0
- herbicidal effect rating, SAGPY (Sagittaria pygmaea, L.; Rate 0.2500 kg/ha): 9.0
- herbicidal effect rating, CYPIR (Cyperus iria; Rate 0.0320 kg/ha): 2.5
- herbicidal effect rating, CYPIR (Cyperus iria; Rate 0.0620 kg/ha): 7.0
- herbicidal effect rating, CYPIR (Cyperus iria; Rate 0.1250 kg/ha): 7.0
- herbicidal effect rating, CYPIR (Cyperus iria; Rate 0.2500 kg/ha): 8.0
- herbicidal effect rating, CYPSE ([2]; Rate 0.0320 kg/ha, preemergence, rated three to four weeks after treatment): 4.5
- herbicidal effect rating, CYPSE ([2]; Rate 0.0620 kg/ha, preemergence, rated three to four weeks after treatment): 5.5
- herbicidal effect rating, CYPSE ([2]; Rate 0.1250 kg/ha, preemergence, rated three to four weeks after treatment): 7.5
- herbicidal effect rating, CYPSE ([2]; Rate 0.2500 kg/ha, preemergence, rated three to four weeks after treatment): 9.0
- herbicidal effect rating ORYSAT ([3]; Rate 0.0320 kg/ha): 3.5
- herbicidal effect rating ORYSAT ([3]; Rate 0.0620 kg/ha): 4.5
- herbicidal effect rating ORYSAT ([3]; Rate 0.1250 kg/ha): 6.0
- herbicidal effect rating ORYSAT ([3]; Rate 0.2500 kg/ha): 6.5
- herbicidal effect rating, ECHORC ([4]; Rate 0.0320 kg/ha): 4.0
- herbicidal effect rating, ECHORC ([4]; Rate 0.0620 kg/ha): 6.5
- herbicidal effect rating, ECHORC ([4]; Rate 0.1250 kg/ha): 7.5
- herbicidal effect rating, ECHORC ([4]; Rate 0.2500 kg/ha): 8.0

From patent publication EP0908457B1, “3-(1,2-benzisothiazol- and isoxazol-5-Y1)-2,4(1H,3H)-pyrimidinedione or thione and 3-(1,2-benzisothiazol- and isoxazol-5-y1)-4(3H)-pyrimidinone or thione herbicidal agents” (BASF AKTIENGESELLSCHAFT, priority 1997, dated 1999)
